Series [1] has as its system MV-4-11 (human, Acute Myeloid Leukemia cell line) cells. Kind of series: Cell growth inhibition assay, GI50 of MV-4-11. It is filed as cell-based. To be noted: Homo sapiens, MV4-11, 72 h, MV-4-11 cells. In short, it runs like this: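 MV-4-11 AML cells (5×10^4/well, IMDM with 10% FBS) treated in duplicate with serially diluted compounds for 72 hours at 37 °C. Viability read as absorbance at 490 nm after CellTiter 96 Aqueous One (MTS) addition; GI50 calculated from the concentration-response.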

Series [2] concerns the target cDNA-expressed human hepatic CYP3A4 (Homo sapiens (Human), UniProt P08684). Nature of the series: Measurement of CYP (IC50 of P450 CYP3A4), BFC substrate. Particulars: 20 minutes. The class given is in vitro ADME. In short, it runs like this: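 cDNA-expressed human CYP3A4 supersomes in 0.1M potassium phosphate pH 7.4 with 8.3 mM MgCl2, 1.67 mM EDTA and 0.25 mM NADPH; compounds in acetonitrile (<1% final). Reaction started with 30 µM BFC, 20 min at 37. 7-Hydroxy-4-trifluoromethyl-coumarin read by fluorescence (ex 409/em 530 nm).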

Sequence of cDNA-expressed human hepatic CYP3A4 (P08684 whole entry): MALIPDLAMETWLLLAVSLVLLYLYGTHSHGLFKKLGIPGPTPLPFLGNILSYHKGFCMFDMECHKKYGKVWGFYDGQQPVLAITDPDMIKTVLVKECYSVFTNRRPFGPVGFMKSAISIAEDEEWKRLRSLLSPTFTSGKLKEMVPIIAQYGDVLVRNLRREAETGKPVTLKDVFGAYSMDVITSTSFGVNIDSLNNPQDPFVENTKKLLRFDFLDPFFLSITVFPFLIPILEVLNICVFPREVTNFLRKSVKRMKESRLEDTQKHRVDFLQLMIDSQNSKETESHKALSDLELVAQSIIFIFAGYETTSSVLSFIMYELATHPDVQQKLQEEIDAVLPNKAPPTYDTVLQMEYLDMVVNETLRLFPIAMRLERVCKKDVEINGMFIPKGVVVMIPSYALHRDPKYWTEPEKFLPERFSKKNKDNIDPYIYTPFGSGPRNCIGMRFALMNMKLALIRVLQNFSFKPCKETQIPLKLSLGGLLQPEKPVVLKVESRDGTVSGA

Compound `C=CCN1CC(=O)N2[C@@H](Cc3ccc(O)cc3)C(=O)N(Cc3cccc4c(C(=O)Nc5ccc(NCCN(C)C)nc5)cn(C)c34)C[C@@H]2N1C(=O)NCc1ccccc1` [Compound G-23] registered a GI50 in series [1] of 1.3 nM. For the same compound, in series [2], 6.75 µM corresponded to half-maximal inhibition (IC50).
In the same order, the values of `C=CCN1CC(=O)N2C(Cc3ccc(O)cc3)C(=O)N(Cc3cccc4c(C(=O)Nc5ccc(NCCN6CCCCC6)nc5)cn(C)c34)CC2N1C(=O)NCc1ccccc1` (stereo not drawn) [Compound G-27] are 2 nM and 2.53 µM.
In series [1], `C=CCN1CC(=O)N2C(Cc3ccc(O)cc3)C(=O)N(Cc3cccc4c(C(=O)Nc5ccc(NCCN6CCOCC6)nc5)cn(C)c34)CC2N1C(=O)NCc1ccccc1` (stereo not drawn) [Compound G-28] displayed a GI50 of 5.6 nM. The compound further gave an IC50 in series [2] of 2.32 µM.
As for `C=CCN1CC(=O)N2[C@@H](Cc3ccc(O)cc3)C(=O)N(Cc3cccc4c(C(=O)Nc5ccc(OCCCN6CCCCC6)nc5)cn(C)c34)C[C@@H]2N1C(=O)NCc1ccccc1` [Compound G-31], growth in series [1] was halved (GI50) at 2.7 nM. Also, in series [2], half-maximal inhibition (IC50) was put at 7.67 µM.
Take `C=CCN1CC(=O)N2C(Cc3ccc(O)cc3)C(=O)N(Cc3cccc4c(C(=O)Nc5ccc(NCCCN6CCCC6)nc5)cn(C)c34)CC2N1C(=O)NCc1ccccc1` (stereo not drawn) [Compound G-32]: growth in series [1] was halved (GI50) at 11.9 nM. In addition, 2.57 µM corresponded to half-maximal inhibition in series [2] (IC50).
In series [1], `C=CCN1CC(=O)N2C(Cc3ccc(O)cc3)C(=O)N(Cc3cccc4c(C(=O)Nc5ccc(N6CCC(O)CC6)nc5)cn(C)c34)CC2N1C(=O)NCc1ccccc1` (stereo not drawn) [Compound G-37] showed a GI50 of 1.3 nM. Moreover, in series [2], half-maximal inhibition (IC50) was put at 6.95 µM.
`C=CCN1CC(=O)N2[C@@H](Cc3ccc(O)cc3)C(=O)N(Cc3cccc4c(C(=O)Nc5ccc(N6CCC(OC)CC6)nc5)cn(C)c34)C[C@@H]2N1C(=O)NCc1ccccc1` [Compound G-38] returned a GI50 in series [1] of 0.6 nM. The compound further displayed an IC50 in series [2] of 2.21 µM.
In the same order, the values of `C=CCN1CC(=O)N2C(CN(Cc3cccc4c(C(=O)Nc5ccc(N6CCNCC6)nc5)cn(C)c34)C(=O)[C@@H]2Cc2ccc(O)cc2)N1C(=O)NCc1ccccc1` (stereo partly drawn) [Compound G-39] are 11.3 nM and 2.73 µM.
Consider `C=CCN1CC(=O)N2C(CN(Cc3cccc4c(C(=O)Nc5ccc(N6CCN(C)CC6)nc5)cn(C)c34)C(=O)[C@@H]2Cc2ccc(O)cc2)N1C(=O)NCc1ccccc1` (stereo partly drawn) [Compound G-41], for which, in series [1], the GI50 was 1.3 nM. The compound also came in with an IC50 in series [2] of 7.6 µM.
`C=CCN1CC(=O)N2C(CN(Cc3cccc4c(C(=O)Nc5ccc(N6CCN(CC)CC6)nc5)cn(C)c34)C(=O)[C@@H]2Cc2ccc(O)cc2)N1C(=O)NCc1ccccc1` (stereo partly drawn) [Compound G-42] displayed a GI50 in series [1] of 1.3 nM. In series [2], this compound had an IC50 of 5.73 µM.
Take `C=CCN1CC(=O)N2C(Cc3ccc(O)cc3)C(=O)N(Cc3cccc4c(C(=O)Nc5ccc(N6CCN(CCC)CC6)nc5)cn(C)c34)CC2N1C(=O)NCc1ccccc1` (stereo not drawn) [Compound G-43]: the GI50 in series [1] came to 1.3 nM. In addition, the IC50 in series [2] was found to be 6.94 µM.
In the same order, the values of `C=CCN1CC(=O)N2C(Cc3ccc(O)cc3)C(=O)N(Cc3cccc4c(C(=O)Nc5ccc(N6CCN(CCO)CC6)nc5)cn(C)c34)CC2N1C(=O)NCc1ccccc1` (stereo not drawn) [Compound G-44] are 1.3 nM and 6.04 µM.
In the same order, the values of `C=CCN1CC(=O)N2C(CN(Cc3cccc4c(C(=O)Nc5ccc(N6CCN(C(C)C)CC6)nc5)cn(C)c34)C(=O)[C@@H]2Cc2ccc(O)cc2)N1C(=O)NCc1ccccc1` (stereo partly drawn) [Compound G-46] are 1.3 nM and 6.12 µM.
The compound `C=CCN1CC(=O)N2[C@@H](Cc3ccc(O)cc3)C(=O)N(Cc3cccc4c(C(=O)Nc5cnc(N6CCN(C(C)C)CC6)nc5)cn(C)c34)C[C@@H]2N1C(=O)NCc1ccccc1` [Compound G-47] gave a GI50 in series [1] of 2.3 nM. This compound also gave an IC50 in series [2] of 3.67 µM.
`C=CCN1CC(=O)N2C(Cc3ccc(O)cc3)C(=O)N(Cc3cccc4c(C(=O)Nc5ccc(N6CCN(C(C)(C)C)CC6)nc5)cn(C)c34)CC2N1C(=O)NCc1ccccc1` (stereo not drawn) [Compound G-48] showed a GI50 in series [1] of 1.3 nM. In series [2], this compound registered an IC50 of 4.19 µM.
As for `C=CCN1CC(=O)N2C(Cc3ccc(O)cc3)C(=O)N(Cc3cccc4c(C(=O)Nc5ccc(N6CCN(C7CC7)CC6)nc5)cn(C)c34)CC2N1C(=O)NCc1ccccc1` (stereo not drawn) [Compound G-49], it took 1.3 nM to inhibit growth in series [1] by half (GI50). In series [2], the midpoint of inhibition, the IC50, lay at 6.94 µM.
In the same order, the values of `C=CCN1CC(=O)N2[C@@H](Cc3ccc(O)cc3)C(=O)N(Cc3cccc4c(C(=O)Nc5ccc(N6CCN(C7CCCC7)CC6)nc5)cn(C)c34)C[C@@H]2N1C(=O)NCc1ccccc1` [Compound G-50] are 2.4 nM and 17.2 µM.
As to `C=CCN1CC(=O)N2C(Cc3ccc(O)cc3)C(=O)N(Cc3cccc4c(C(=O)Nc5ccc(N6CCC(N7CCCC7)CC6)nc5)cn(C)c34)CC2N1C(=O)NCc1ccccc1` (stereo not drawn) [Compound G-51], in series [1], growth was halved (GI50) at 1.3 nM. Half-maximal inhibition in series [2] (IC50) was put at 3.97 µM.
As to `C=CCN1CC(=O)N2C(Cc3ccc(O)cc3)C(=O)N(Cc3cccc4c(C(=O)Nc5ccc(NC6CC(C)(C)N(C)C(C)(C)C6)nc5)cn(C)c34)CC2N1C(=O)NCc1ccccc1` (stereo not drawn) [Compound G-52], growth in series [1] was halved (GI50) at 13 nM. This compound gave an IC50 in series [2] of 7.1 µM.
In series [1], `C=CCN1CC(=O)N2C(Cc3ccc(O)cc3)C(=O)N(Cc3cccc4c(C(=O)Nc5ccc(N6CCN(C(C)=O)CC6)nc5)cn(C)c34)CC2N1C(=O)NCc1ccccc1` (stereo not drawn) [Compound G-53] came in with a GI50 of 1.3 nM. The IC50 in series [2] was over 25 µM.
The compound `C=CCN1CC(=O)N2[C@@H](Cc3ccc(O)cc3)C(=O)N(Cc3cccc4c(C(=O)Nc5ccc(N6CCC(N7CCC7)CC6)nc5)cn(C)c34)C[C@@H]2N1C(=O)NCc1ccccc1` [Compound G-54] registered a GI50 in series [1] of 1.4 nM. Further, in series [2], the IC50 was 3.29 µM.
Consider `C=CCN1CC(=O)N2C(Cc3ccc(O)cc3)C(=O)N(Cc3cccc4c(C(=O)Nc5ccc(N6CCC(N7CCCCC7)CC6)nc5)cn(C)c34)CC2N1C(=O)NCc1ccccc1` (stereo not drawn) [Compound G-55], for which halving of growth in series [1] (GI50) required 1.3 nM. Also, the IC50 in series [2] is 2.37 µM.
`C=CCN1CC(=O)N2[C@@H](Cc3ccc(O)cc3)C(=O)N(Cc3cccc4c(C(=O)Nc5ccc(N6CCC(N7CCN(C)CC7)CC6)nc5)cn(C)c34)C[C@@H]2N1C(=O)NCc1ccccc1` [Compound G-57] gave a GI50 in series [1] of 1.3 nM. The IC50 in series [2] is 6.32 µM.
Take `C=CCN1CC(=O)N2[C@@H](Cc3ccc(O)cc3)C(=O)N(Cc3cccc4c(C(=O)Nc5ccc(N6CC(O)C6)nc5)cn(C)c34)C[C@@H]2N1C(=O)NCc1ccccc1` [Compound G-61]: it took 8.5 nM to inhibit growth in series [1] by half (GI50). In series [2], half-maximal inhibition (IC50) required 4.87 µM.
For `C=CCN1CC(=O)N2[C@@H](Cc3ccc(O)cc3)C(=O)N(Cc3cccc4c(C(=O)Nc5ccc(N6CC(N7CCN(C)CC7)C6)nc5)cn(C)c34)C[C@@H]2N1C(=O)NCc1ccccc1` [Compound G-62], halving of growth in series [1] (GI50) required 1.4 nM. In series [2], this compound registered an IC50 of 4.1 µM.
In turn, `C=CCN1CC(=O)N2[C@@H](Cc3ccc(O)cc3)C(=O)N(Cc3cccc4c(C(=O)Nc5ccc(N6CC(N7CCC(OC)CC7)C6)nc5)cn(C)c34)C[C@@H]2N1C(=O)NCc1ccccc1` [Compound G-63] returned a GI50 in series [1] of 1.5 nM. Moreover, the IC50 in series [2] was determined as 2.56 µM.
In series [1], `C=CCN1CC(=O)N2[C@@H](Cc3ccc(O)cc3)C(=O)N(Cc3cccc4c(C(=O)Nc5ccc(N6CC7CCN(C)C7C6)nc5)cn(C)c34)C[C@@H]2N1C(=O)NCc1ccccc1` (stereo partly drawn) [Compound G-64] returned a GI50 of 1.3 nM. In series [2], this compound came in with an IC50 of 7.64 µM.
In series [1], `C=CCN1CC(=O)N2C(CN(Cc3cccc4c(C(=O)Nc5ccc(N6CCC7(CCN(CC)C7)C6)nc5)cn(C)c34)C(=O)[C@@H]2Cc2ccc(O)cc2)N1C(=O)NCc1ccccc1` (stereo partly drawn) [Compound G-65] yielded a GI50 of 1.3 nM. This compound also had an IC50 in series [2] of 3.91 µM.
In series [1], `C=CCN1CC(=O)N2C(CN(Cc3cccc4c(C(=O)Nc5ccc(N6CCC7CCCN7C6)nc5)cn(C)c34)C(=O)[C@@H]2Cc2ccc(O)cc2)N1C(=O)NCc1ccccc1` (stereo partly drawn) [Compound G-66] returned a GI50 of 1.3 nM. Further, the IC50 in series [2] came out at 4.6 µM.
On to `C=CCN1CC(=O)N2[C@@H](Cc3ccc(O)cc3)C(=O)N(Cc3cccc4c(C(=O)Nc5ccc(N6CCCN(C)CC6)nc5)cn(C)c34)C[C@@H]2N1C(=O)NCc1ccccc1` [Compound G-67], for which, in series [1], the GI50 came to 1.3 nM. The IC50 in series [2] worked out at 11.2 µM.
Take `C=CCN1CC(=O)N2C(Cc3ccc(O)cc3)C(=O)N(Cc3cccc4c(-c5ccc(NC(=O)N6CCN(S(C)(=O)=O)CC6)nc5)cn(C)c34)CC2N1C(=O)NCc1ccccc1` (stereo not drawn) [Compound G-68]: growth in series [1] was halved (GI50) at 2.2 nM. In addition, in series [2], the IC50 is 6.4 µM.
In series [1], `C=CCN1CC(=O)N2C(CN(Cc3cccc4c(C(=O)Nc5ccc6c(c5)OCCO6)cn(C)c34)C(=O)[C@@H]2Cc2ccc(O)cc2)N1C(=O)NCc1ccccc1` (stereo partly drawn) [Compound G-70] returned a GI50 of 1.7 nM. The IC50 in series [2] was determined as 2.63 µM.
`C=CCN1CC(=O)N2[C@@H](Cc3ccc(O)cc3)C(=O)N(Cc3cccc4c(-c5ccc(C(=O)OC)cc5)cn(C)c34)C[C@@H]2N1C(=O)NCc1ccccc1` [Compound H-1] came in with a GI50 in series [1] of 15 nM. In series [2], this compound came in with an IC50 of 3.85 µM.
`C=CCN1CC(=O)N2[C@@H](Cc3ccc(O)cc3)C(=O)N(Cc3cccc4c(-c5ccc(C#N)cc5)cn(C)c34)C[C@@H]2N1C(=O)NCc1ccccc1` [Compound H-2]: the GI50 in series [1] worked out at 17.8 nM. Further, in series [2], inhibition was half-maximal at 9.33 µM (IC50).
In the same order, the values of `C=CCN1CC(=O)N2C(CN(Cc3cccc4c(-c5ccc(S(C)(=O)=O)cc5)cn(C)c34)C(=O)[C@@H]2Cc2ccc(O)cc2)N1C(=O)NCc1ccccc1` (stereo partly drawn) [Compound H-3] are 2.2 nM and 10 µM.
For the compound `C=CCN1CC(=O)N2[C@@H](Cc3ccc(O)cc3)C(=O)N(Cc3cccc4c(-c5cnc6ccccc6c5)cn(C)c34)C[C@@H]2N1C(=O)NCc1ccccc1` [Compound H-6], the GI50 in series [1] stood at 9.7 nM. Also, half-maximal inhibition in series [2] (IC50) was put at 2.09 µM.
